Where a SMILES comes first, the peptide text is derived from it. [ ]: non-standard residue; d: D form.
How the values were obtained:
Format in all cases: cell-based
Candida albicans = test: MIC, clinical yeast strains
How it was run: (§1)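 For A. johnsonii, Mueller Hinton broth; for the clinical yeasts, Potato dextrose broth. In both, 5.0×10^5 cfu/ml was exposed to peptide over 0.125–128 μg/ml for 20–24 h at 37 °C, and MIC was read as the lowest concentration showing no visual growth.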

C. glabrata = test: MIC, clinical yeast strains
How it was run: as §1

C. parapsilosis = test: MIC, clinical yeast strains
How it was run: as §1

[1] = tested on: clinical strains of A. johnsonii; test: MIC, microdilution, clinical strains; parameters: unit: μg/ml; conditions: Acinetobacter johnsonii strain 1, Muller Hinton broth-cation adjusted, 0.02% BSA, 0.2% acetic acid
How it was run: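 MIC = lowest peptide concentration without visual growth after 20–24 h at 37° C. Range 0.125–128 μg/ml, inoculum 5.0×10^5 cfu/ml, microdilution format. Antifungal tests used potato dextrose broth; bacterial tests used MH broth.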

[2] = tested on: clinical strains of Acinetobacter baumannii; test: MIC, microdilution, clinical strains; parameters: unit: μg/ml; conditions: 0.02% BSA, 0.2% acetic acid
How it was run: (§2)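 Broth microdilution with inocula adjusted to 5.0×10^5 cfu/ml; peptides tested at 0.125 to 128 μg/ml and incubated at 37° C for 20 to 24 hours. Bacteria were grown in Mueller Hinton broth, yeasts in potato dextrose broth. MIC was the lowest concentration showing no visible growth.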

[3] = tested on: clinical strains of K. pneumoniae; test: MIC, microdilution, clinical strains; conditions: 0.02% BSA, 0.2% acetic acid
How it was run: as §2

[4] = tested on: clinical strains of Serratia marcescens; test: MIC, microdilution, clinical strains; conditions: 0.02% BSA, 0.2% acetic acid
How it was run: as §2

[5] = tested on: clinical strains of S. aureus; test: MIC, microdilution, clinical strains; conditions: 0.02% BSA, 0.2% acetic acid
How it was run: as §2

[6] = tested on: clinical strains of Proteus mirabilis; test: MIC, microdilution, clinical strains; conditions: 0.02% BSA, 0.2% acetic acid
How it was run: as §2

[7] = tested on: clinical strains of E. coli; test: MIC, microdilution, clinical strains; conditions: microdilution, Muller Hinton broth-cation adjusted, 0.02% BSA, 0.2% acetic acid
How it was run: as §2

[8] = tested on: clinical strains of P. aeruginosa; test: MIC, microdilution, clinical strains; conditions: 0.02% BSA, 0.2% acetic acid
How it was run: as §2

[9] = tested on: clinical strains of E. cloacae; test: MIC, microdilution, clinical strains; conditions: 0.02% BSA, 0.2% acetic acid
How it was run: as §2

[10] = tested on: clinical strains of S. pneumoniae; test: MIC, microdilution, clinical strains; conditions: 0.02% BSA, 0.2% acetic acid
How it was run: as §2

C. quillermondiae = test: MIC, clinical yeast strains; parameters: Minimum inhibitory concentration: unit: μg/ml; conditions: C. quillermondiae clinical yeast strain 1
How it was run: as §1

SMILES: CC(C)C[C@@H](NC(=O)[C@H](N)CCCNC(=N)N)C(=O)N[C@H](CCCCN)C(=O)N[C@H](Cc1c[nH]c2ccccc12)C(=O)N[C@H](Cc1ccccc1)C(=O)N[C@H](CC(C)C)C(=O)N[C@H](CC(C)C)C(=O)N[C@H](Cc1ccccc1)C(=O)N[C@H](CCCNC(=N)N)C(=O)N[C@H](CCCCN)C(=O)N[C@H](CCCNC(=N)N)C(=O)O [Chain308D] (H-[dR][dL][dK][dW][dF][dL][dL][dF][dR][dK][dR]-OH)
- Minimum inhibitory concentration (Candida albicans; Candida albicans clinical yeast strain 1): 16
- Minimum inhibitory concentration (Candida albicans; Candida albicans clinical yeast strain 2): 16
- Minimum inhibitory concentration (Candida albicans; Candida albicans clinical yeast strain 3): 16
- Minimum inhibitory concentration (Candida albicans; Candida albicans clinical yeast strain 4): 16
- Minimum inhibitory concentration (Candida albicans; Candida albicans clinical yeast strain 5): 16
- Minimum inhibitory concentration (C. glabrata; C. glabrata clinical yeast strain 1): 16
- Minimum inhibitory concentration (C. glabrata; C. glabrata clinical yeast strain 2): 16
- Minimum inhibitory concentration (C. glabrata; C. glabrata clinical yeast strain 3): 16
- Minimum inhibitory concentration (C. glabrata; C. glabrata clinical yeast strain 4): 16
- Minimum inhibitory concentration (C. parapsilosis; C. parapsilosis clinical yeast strain 1): 8
- Minimum inhibitory concentration (C. parapsilosis; C. parapsilosis clinical yeast strain 2): 8
- Minimum inhibitory concentration (C. parapsilosis; C. parapsilosis clinical yeast strain 3): 8
- Minimum inhibitory concentration (C. parapsilosis; C. parapsilosis clinical yeast strain 4): 4
- Minimum inhibitory concentration [1]: 4
- Minimum inhibitory concentration ([2]; Acinetobacter baumannii strain 1, Muller Hinton broth-cation adjusted): 4
- Minimum inhibitory concentration ([2]; Acinetobacter baumannii strain 2, Muller Hinton broth-cation adjusted): 4
- Minimum inhibitory concentration ([2]; Acinetobacter baumannii strain 3, Muller Hinton broth-cation adjusted): 4
- Minimum inhibitory concentration ([2]; Acinetobacter baumannii strain 4, Muller Hinton broth-cation adjusted): 2
- Minimum inhibitory concentration ([2]; Acinetobacter baumannii strain 5, Muller Hinton broth-cation adjusted): 2
- Minimum inhibitory concentration ([3]; Klebsiella pneumoniae strain 1, Muller Hinton broth-cation adjusted): 4
- Minimum inhibitory concentration ([3]; Klebsiella pneumoniae strain 2, Muller Hinton broth-cation adjusted): 4
- Minimum inhibitory concentration ([3]; Klebsiella pneumoniae strain 3, Muller Hinton broth-cation adjusted): 4
- Minimum inhibitory concentration ([3]; Klebsiella pneumoniae strain 4, Muller Hinton broth-cation adjusted): 4
- Minimum inhibitory concentration ([3]; Klebsiella pneumoniae strain 5, Muller Hinton broth-cation adjusted): 4
- Minimum inhibitory concentration ([4]; Serratia marcescens strain 1, Muller Hinton broth-cation adjusted): 128
- Minimum inhibitory concentration ([4]; Serratia marcescens strain 2, Muller Hinton broth-cation adjusted): 128
- Minimum inhibitory concentration ([4]; Serratia marcescens strain 3, Muller Hinton broth-cation adjusted): 64
- Minimum inhibitory concentration ([4]; Serratia marcescens strain 4, Muller Hinton broth-cation adjusted): >128
- Minimum inhibitory concentration ([4]; Serratia marcescens strain 5, Muller Hinton broth-cation adjusted): 128
- Minimum inhibitory concentration ([5]; Staphylococcus aureus strain 1, Muller Hinton broth-cation adjusted): 1
- Minimum inhibitory concentration ([5]; Staphylococcus aureus strain 2, Muller Hinton broth-cation adjusted): 2
- Minimum inhibitory concentration ([5]; Staphylococcus aureus strain 3, Muller Hinton broth-cation adjusted): 1
- Minimum inhibitory concentration ([5]; Staphylococcus aureus strain 4, Muller Hinton broth-cation adjusted): 2
- Minimum inhibitory concentration ([5]; Staphylococcus aureus strain 5, Muller Hinton broth-cation adjusted): 2
- Minimum inhibitory concentration ([6]; Proteus mirabilis strain 1, Muller Hinton broth-cation adjusted): >128
- Minimum inhibitory concentration ([6]; Proteus mirabilis strain 2, Muller Hinton broth-cation adjusted): 32
- Minimum inhibitory concentration ([6]; Proteus mirabilis strain 3, Muller Hinton broth-cation adjusted): 128
- Minimum inhibitory concentration ([6]; Proteus mirabilis strain 4, Muller Hinton broth-cation adjusted): >128
- Minimum inhibitory concentration ([6]; Proteus mirabilis strain 5, Muller Hinton broth-cation adjusted): >128
- Minimum inhibitory concentration ([7]; Escherichia coli strain 1): 1
- Minimum inhibitory concentration ([7]; Escherichia coli strain 2): 0.5
- Minimum inhibitory concentration ([7]; Escherichia coli strain 3): 1
- Minimum inhibitory concentration ([7]; Escherichia coli strain 4): 1
- Minimum inhibitory concentration ([7]; Escherichia coli strain 5): 1
- Minimum inhibitory concentration ([8]; Pseudomonas aeruginosa strain 1, Muller Hinton broth-cation adjusted): 8
- Minimum inhibitory concentration ([8]; Pseudomonas aeruginosa strain 2, Muller Hinton broth-cation adjusted): 8
- Minimum inhibitory concentration ([8]; Pseudomonas aeruginosa strain 3, Muller Hinton broth-cation adjusted): 4
- Minimum inhibitory concentration ([8]; Pseudomonas aeruginosa strain 4, Muller Hinton broth-cation adjusted): 4
- Minimum inhibitory concentration ([8]; Pseudomonas aeruginosa strain 5, Muller Hinton broth-cation adjusted): 4
- Minimum inhibitory concentration ([9]; Enterobacter cloacae strain 1, Muller Hinton broth-cation adjusted): 2
- Minimum inhibitory concentration ([9]; Enterobacter cloacae strain 2, Muller Hinton broth-cation adjusted): 2
- Minimum inhibitory concentration ([9]; Enterobacter cloacae strain 3, Muller Hinton broth-cation adjusted): 2
- Minimum inhibitory concentration ([9]; Enterobacter cloacae strain 4, Muller Hinton broth-cation adjusted): 2
- Minimum inhibitory concentration ([9]; Enterobacter cloacae strain 5, Muller Hinton broth-cation adjusted): 2
- Minimum inhibitory concentration ([10]; Streptococcus pneumoniae strain 1, Muller Hinton broth-cation adjusted): 8
- Minimum inhibitory concentration ([10]; Streptococcus pneumoniae strain 2, Muller Hinton broth-cation adjusted): 4
- Minimum inhibitory concentration ([10]; Streptococcus pneumoniae strain 3, Muller Hinton broth-cation adjusted): 8
- Minimum inhibitory concentration ([10]; Streptococcus pneumoniae strain 4, Muller Hinton broth-cation adjusted): 2
- Minimum inhibitory concentration ([10]; Streptococcus pneumoniae strain 5, Muller Hinton broth-cation adjusted): 4
- Minimum inhibitory concentration (C. quillermondiae): 4
